Results on 86 compounds are retold here after a melting point compilation (Tetko et al.; mined from patent text by program, amines drawn as free bases though some values may be those of a salt).

As a reminder, the melting point is the temperature of the solid-liquid transition.

Compound `C=C(C)n1cc(C(=O)O)c(=O)c2cc(F)c(N3CC[C@H](N)C3)cc21` yielded a melting point of 249 to 255 °C.

`COc1cccc([C@H]2O[C@H](CC(=O)Nc3cc(C(=O)O)ccc3F)C(=O)N(CC(C)(C)COC(C)=O)c3ccc(Cl)cc32)c1OC` returned a melting point of 146 to 149 °C. For `O=C(C=Cc1cccc(Cl)c1)C=Cc1cccc(Cl)c1`, the melting point lay within 120 to 121 °C. `COc1cc2c(cc1OC)N(c1ccc([N+](=O)[O-])cc1)CC2` returned a melting point of 176 to 179 °C. Take `CN(c1nc(-c2cc3ccccc3[nH]c2=O)cs1)S(=O)(=O)c1ccccc1`: the melting point lay in the range of 242 to 244 °C. With `N#CCn1nc(-c2c(-c3ccccc3)nn3ccccc23)ccc1=O`, the melting point was 218 to 219 °C. The result for `CC(CCc1ccc(F)cc1)NCc1c(CO)ccc(O)c1CO` (stereo unspecified) reads 101 to 103 °C; that for `CCCCCOc1nc(N)c2ncn(C3CCCCC3)c2n1`, 64 to 68 °C. The result for `CCOC(=O)c1ccc(NC(=O)NC2CN(C(=O)c3cccs3)c3ccc(C)cc3N(CC(=O)c3cccs3)C2=O)cc1` (stereo unspecified) reads 244 °C. `COc1cc(Br)c(C(=O)c2ccccc2)cc1OC`: the melting point was 71 to 72 °C. In turn, `CCn1cc([N+](=O)[O-])cn1` registered a melting point of 54 to 55 °C. As for `CNc1ncnc2c1ncn2C1OC(CO)C(OC)C1(C)O` (stereo unspecified), the melting point turned out to be 165 °C.

Compound `Nc1nc(-n2cc(C(=O)O)c(=O)c3cc(F)c(N4CC(O)C4)c(Cl)c32)c(F)cc1F` gave a melting point of 235 to 238 °C. The compound `CCc1cc2c(s1)-n1c(C)nnc1C(CC(=O)O)N=C2c1ccc(Cl)cc1` (stereo unspecified) came in with a melting point of 198 to 202 °C.

In turn, `CNC(=S)NCc1cc(-c2ccccc2)no1` showed a melting point of 118 °C. With `CON(c1ccc([N+](=O)[O-])cc1C#N)S(=O)(=O)c1ccc(C)cc1`, the melting point lay in the range of 148 to 150 °C. `CNc1nn2cc(-c3ccccc3)nc2s1` came in with a melting point of 177 °C. Take `O=C1CSCc2nc(-c3ccccc3)ccc21`: the melting point fell in the range of 78 to 81 °C. On to `C[Si](C)(C)c1ccc2cc(C(=O)O)n(Cc3cccc(F)c3)c2c1`, for which the melting point lay in the range of 189 to 191 °C. In the case of `COc1cc(C(C)=NOCc2ccc3nonc3c2)ccc1F`, the melting point was 65 °C. `O=C(c1ccccc1)c1cccc2c1CCC2C(=O)NO` (stereo unspecified) displayed a melting point of 160 °C. In turn, `CCC1(CCCCN2CCN(c3ccc(Cl)cc3)CC2)C(=O)Nc2ccccc21` (stereo unspecified) registered a melting point of 145 to 146 °C.

With `CCOC(=O)c1cn(C2CC2)c2occc2c1=O`, the melting point lay in the range of 200 to 201 °C. For `CCOC(=O)C(=O)Nc1ccc(C(=O)O)cc1NC(=O)C(=O)OCC` the value was 251 °C; for `CCCCCCCCCCCCCCCCCCOc1cc(OC(=O)C(c2ccccc2)c2ccccc2)cc(C(=O)O)c1`, 82 to 86 °C. The compound `C=C1CCC2C3CCC4=CC(=O)C=CC4(C)C3CCC12C` (stereo unspecified) came in with a melting point of 155 to 157 °C. For `CS(=O)(=O)c1ccc(C(CC2CCCC2)C(=O)O)cc1Br` (stereo unspecified) the value was 149 to 150 °C; for `Cc1oc(-c2ccc(C(F)(F)F)cc2)nc1COc1ccc(CN(O)C(N)=O)cc1`, 146 to 147 °C. In turn, `COc1cc2ncnc(Nc3ccc(F)c(Cl)c3)c2cc1OCCC1OCCO1` displayed a melting point of 167 to 168 °C. The result for `CC(=NNc1c(Cl)cc(C(F)(F)F)cc1Cl)C(=NO)C(=O)Nc1ccccc1` reads 185 to 186 °C.

`CCOCOC1CCC2(C)C(=CCC3C2CCC2(C)C3CC3OC4(CCC(C)CO4)C(C)C32)C1` (stereo unspecified): the melting point fell in the range of 125 to 127 °C. In turn, `CC(C)C(NC(=O)OC(C)(C)C)C(=O)NC(C(=O)OC1CC(n2cc(C=CBr)c(=O)[nH]c2=O)OC1CN=[N+]=[N-])C(C)C` (stereo unspecified) registered a melting point of 133 to 135 °C. For the compound `O=C(N[C@H]1CC[C@H](CCN2CCN(c3nccc4c3OCC4)CC2)CC1)C1CCC1`, the melting point stood at 186 °C.

`O=C(O)c1ccc([N+](=O)[O-])cc1C(F)(F)F` returned a melting point of 128 to 129 °C. For `Cc1nc[nH]c1CSCCN=C(NC#N)NCCCc1c[nH]cn1` the value was 140 to 142 °C; for `CCOC(=O)C(C(=O)OCC)c1cccc2nnsc12`, 72 to 74 °C. For `CCCCCCCCCCOc1ccc(C(=O)c2ccc(OC(=O)[C@H]3CCCO3)cc2)cc1` the value was 80 °C. For `O=C(CCCBr)Nc1ccc(O)cc1`, the melting point was 142 to 144 °C. With `CC(C)(C)CC(=O)NC(Cc1ccc(OCc2ccccc2)cc1)C(=O)Nc1c(F)cc(F)cc1F` (stereo unspecified), the melting point fell in the range of 150 to 157 °C.

`CN(C)c1ccc(C=CC(=O)CC(=O)C=Cc2ccc(N(C)C)cc2)cc1` showed a melting point of 207 to 208 °C. The result for `O=C(NCC1CC1)c1c(NC(=O)c2cc(C(F)(F)F)nn2-c2ncccc2Cl)c(Br)cc2cn[nH]c12` reads 144 to 150 °C; that for `CN(Cc1cc2c3c(c1)c(=O)c(C(=O)NCc1ccc(F)cc1)cn3CC(=O)N2C)C[C@@H](O)c1cc2ccccc2o1`, 94 to 96 °C; that for `CCOC(=O)c1ccc(Oc2ccc(C(C)=C3SCCCS3)cc2)cc1`, 57 to 58 °C. For `CC(=O)Nc1c(OC(C)=O)cc(C(C)(C)C)cc1[N+](=O)[O-]` the value was 200 to 201 °C.

As for `CC(=O)Cc1nc2ccccc2c(=O)o1`, the melting point is 120 to 122 °C.

Compound `COc1cc(C=O)cc2c(N(C)C)cc(C)nc12` yielded a melting point of 127 to 129 °C. As for `CC(=O)OC1CCC2(C)C(CCC3C4CCC(C(C)CC(=O)C(=O)N5CCOCC5)C4(C)CC(=O)C32)C1` (stereo unspecified), the melting point was in the range of 122 to 123 °C. Turning to `COC(=O)c1nc(Cl)sc1-c1cccc(F)c1`, the melting point lay within 99 to 100 °C.

With `CC(C)=CCN1N=C(c2ccc(F)cc2)c2cc(Cl)ccc2CS1(=O)=O`, the melting point was in the range of 168 to 169 °C. `CC(C)OC(C)c1cc2c(=O)n(NS(C)(=O)=O)c(=O)[nH]c2cc1C(F)(F)F` (stereo unspecified): the melting point lay within 110 to 115 °C. The compound `N[C@@H](Cc1cccc(OC(F)(F)C(F)F)c1)[C@H](O)c1ccc(F)nc1` (racemic) gave a melting point of 103 to 104 °C. Take `CCC1CC(=O)N(Cc2ccc(NC(C)=O)cc2)N=C1c1ccc(OC)c(OC)c1` (stereo unspecified): the melting point was 133 °C. `CCOC(=O)c1ccc(OCCCCCCc2cccc(OCc3ccccc3)c2OCc2ccccc2)cc1` gave a melting point of 63 to 65 °C. Take `COC(=O)c1ccc(Cn2c(C)nc3ccccc32)c2ccccc12`: the melting point was in the range of 207 to 208 °C. Compound `Cc1ccc(S(=O)(=O)OCC2CCc3cc(C#N)ccc3C2)cc1` (stereo unspecified) returned a melting point of 100 to 102 °C. `N#Cc1cc(Br)cc(-c2ccsc2)c1` yielded a melting point of 62 to 63 °C. On to `O=C1c2ccccc2-c2c1c1ccccc1c(=O)n2CCCCNS(=O)(=O)c1ccc(Br)cc1`, for which the melting point lay in the range of 176 to 177 °C.

The compound `N#CSc1cc(Cl)c(Cl)c2sc(NC(=O)Nc3ccc(Br)cc3)nc12` yielded a melting point of 243 to 245 °C.

For the compound `CC1Sc2c(C(=O)O)c(=O)c3cc(F)c(N4CCSCC4)cc3n21` (stereo unspecified), the melting point was in the range of 229 to 231 °C. As to `O=C(NCc1ccccn1)c1cc(OCC(F)(F)F)ccc1OCc1ccccc1`, the melting point was in the range of 115 to 116 °C. `CCCCN(CCCC)c1ccc(C=CC2=C(OC)C(=CC=CC3=C(C#N)C(=C(C#N)C#N)OC3(C)C(F)(F)F)CC(C)(C)C2)c(OC)c1` (stereo unspecified) showed a melting point of 141 to 151 °C. On to `COC(=O)CCNC(=O)C(=Cc1ccccc1)CSC(=O)c1ccccc1`, for which the melting point is 66 °C.

For `COC(=O)C1Cc2c([nH]c3ccccc23)C(c2ccccc2Cl)N1` (stereo unspecified), the melting point was determined as 154 °C. For `CCOC(=O)N1CCCc2cc(C(=O)CCCl)ccc21` the value was 78 to 79 °C; for `O=C1c2ccc([N+](=O)[O-])cc2C(=O)N1C1CCN(Cc2cccnc2)CC1`, 143 to 144 °C. `O=C(Nc1ccc(Oc2ccnc(N3CCC3)n2)c2ccccc12)c1cc(F)cc(N2CCOCC2)c1` had a melting point of 196 to 197 °C.

For `CCc1c(-c2ccc(O)cc2)c2c(C(=O)N(C)CCN(C)C)cc3cc(OC)cc1n32`, the melting point fell in the range of 190 to 200 °C. The result for `CCC(=O)NC(C)OC` (stereo unspecified) reads 29 to 32 °C; that for `CCOP(=O)(Cc1ccc(NC(=O)c2cc3c(s2)-c2c(SC)sc(C(=O)Nc4ccc(CP(=O)(OCC)OCC)cc4)c2CC3)cc1)OCC`, 262 to 263 °C. For `COc1ccc(N2CCN(c3c(C)c(C)c4c(c3C)C(O)(c3ccc(-c5ccccc5)cc3)C(C)(C)O4)CC2)cc1` (stereo unspecified) the value was 182 to 184 °C; for `Cc1ccc2c(c1)SC(c1ccc(OCCCCCBr)cc1)C(=O)N2C` (stereo unspecified), 81 to 82 °C; for `Cc1ccc(S(=O)(=O)N2CC3CCCNC3C2)cc1` (stereo unspecified), 95 to 97 °C. The compound `COc1ccc2cc(-c3nc(-c4ccncc4)no3)c(=O)oc2c1` registered a melting point of 300 °C.

Take `COc1cc(F)ccc1Oc1c(Cl)nc(C)nc1NS(=O)(=O)c1ccc(C(C)(C)C)cc1`: the melting point was in the range of 164 to 165 °C.

Take `Cc1cc(-c2cccc(-c3ccc(C4(O)C5CCC4CN(Cc4ccccc4)C5)cc3)n2)c(C)[nH]1` (stereo unspecified): the melting point was in the range of 58 to 68 °C. For the compound `C#CCn1c(C)c(C(=O)OCC)sc1=O`, the melting point was 65 °C. As to `O=C(O)C1=CCC(c2ccccc2)(c2ccccc2)CC1`, the melting point was in the range of 227 to 229 °C. For `O=S(=O)(Nc1ccc2c(-c3ccccc3Cl)n[nH]c2c1)c1cccc(Cl)c1` the value was 187 to 189 °C. In the case of `CCCNC(=O)c1cccc(-c2cc(-c3ccccc3O)nc(NC(=O)c3cccs3)c2C#N)c1`, the melting point lay in the range of 245 to 246 °C. As for `Cc1nsc(OCC(F)(F)F)c1[N+](=O)[O-]`, the melting point was in the range of 63 to 64 °C.

For `COC(=O)C(C)(C)c1ccc(C(=O)CCCCl)cc1`, the melting point lay in the range of 175 to 181 °C. Compound `Clc1ccc2c(c1)C1(CO1)c1ccccc1C21CO1` (stereo unspecified) had a melting point of 61 to 67 °C. `COc1ccc(Cc2nnc(-c3ccc4occc4c3)o2)cc1` showed a melting point of 108 to 109 °C.

Turning to `N#CC(c1ccc([N+](=O)[O-])cc1)c1ccc(Cl)cc1Cl` (stereo unspecified), the melting point fell in the range of 81 to 82.5 °C. The compound `C[C@H]1CC(=O)N1c1ccc(C(=O)OCc2ccccc2)cc1` gave a melting point of 89 °C. Compound `CC(=O)c1c(O)cccc1OCC(O)COc1ccc(F)cc1` (stereo unspecified) came in with a melting point of 111 to 113 °C.
